Converted amounts (≈) assume the structure as drawn.
Key:
[1] = system: HCMV wild-type; assay: HCMV yield assay; type: cell-based, human cytomegalovirus; details: human foreskin fibroblasts; for IC50: Human betaherpesvirus 5, Fibroblast, read-out: IC50 Ug/ml HCMV
Protocol: Yield assay. Monolayer cultures of human foreskin fibroblasts are infected with HCMV wild-type, typically at a multiplicity of infection equal to 0.2, in the presence of inhibitor compound (varying concentrations). At three days post-infection, total virus produced in these cultures (i.e. virus yield) is assessed by harvesting and titering the virus in 12-well plates of cultured human foreskin fibroblasts (done in the absence of inhibitor). Plaques are quantified at 2 weeks post-infection. An inhibitor of HCMV is identified by the reduction in titer of virus yield in the presence, compared to the titer in the absence of compound. In this assay, the relative anti-HCMV activity of an inhibitor is typically determined by calculating the IC50 or IC90 value, that is, the amount of compound required to reduce the virus yield by 50% or 90%, respectively. Table I describes IC50 data for compounds tested against HCMV.

[2] = system: VZV strain Ellen; assay: VZV Antiviral (ELISA) Assay; type: cell-based, varicella-zoster virus; details: human foreskin fibroblast cells; for IC50 / inhibition at 10 µg/mL: Human alphaherpesvirus 3, Fibroblast; for IC50: read-out: IC50 Ug/ml VZV; for inhibition at 10 µg/mL: read-out: % inhibition 10 ug/ml VZV, 10 ug/ml
Protocol: For the generation of stock VZV to be used in the assay, VZV strain Ellen (ATCC #VR-1367) is used to infect human foreskin fibroblast (HFF) cells at low multiplicity (less than 0.1) and incubated overnight at 37° C. in 5% CO2. After the overnight incubation, the mixture of uninfected and VZV-infected HFF infected cells are then harvested and added to each well of 96-well plates (3.5×10^4 cells in 100 μl DMEM supplemented with 2% FBS) which contain test compound or the reference standard drug control (in 100 μl DMEM supplemented with 2% FBS per well). These cells are incubated for three days at 37° C. in 5% CO2, then fixed for ELISA assay. The primary antibody is murine anti-VZV glycoprotein II monoclonal antibody (Applied Biosystems, Inc. #13-145-100) and the secondary antibody is goat anti-mouse IgG linked to β-galactosidase. Thus the extent of viral replication is determined by assessing β-galactosidase activity by quantifying the generation of the 4-methyl umbelliferone fluorescent cleavage product after addition of the methyl umbelliferyl-β-D-galactoside (Sigma #M1633) substrate on a microfluorimeter (365 nm for excitation and 450 nm for emission). Antiviral activity (IC50) of the test compound is determined by comparing the flourescence obtained in absence of compound to that obtained in the presence of compound.

[3] = system: HSV-1; assay: HSV Antiviral (ELISA) Assay; type: cell-based, herpes simplex virus type 1; details: Vero cells, HSV-1; for IC50: Human alphaherpesvirus 1, Vero, read-out: IC50 Ug/ml HSV
Protocol: Vero cells (ATCC #CCL-81) are plated on 96-well tissue culture plates at 3.5×10^4 cells per 100 μl tissue culture DMEM (Dulbecco's modified Eagle media) supplemented with 2% fetal bovine serum (FBS) in each well. After overnight incubation @ 37° C. (in 5% CO2) and 30 minutes prior to infection with HSV-1 (multiplicity of infection equal to 0.006), cells are either untreated, or treated with test compound (multiple concentrations) or reference standard drug control. After approximately 24 hours post-infection incubation @ 37° C. (in 5% CO2), cells are fixed for ELISA assay. The primary antibody is murine anti-HSV glycoprotein D monoclonal primary antibody and the secondary antibody is goat anti-mouse IgG linked to β-galactosidase. Thus the extent of viral replication is determined by assessing β-galactosidase activity by quantifying the generation of the 4-methyl umbelliferone fluorescent cleavage product after addition of the methyl umbelliferyl-β-D-galactoside (Sigma #M1633) substrate on a microfluorimeter (365 nm for excitation and 450 nm for emission). Antiviral activity (IC50) of the test compound is determined by comparing the flourescence obtained in absence of compound to that obtained in the presence of compound.

Row | IC50 [3] | IC50 Ug/ml HSV [3] | Structure (SMILES) | IC50 [1] | IC50 [2] | inhibition at 10 µg/mL [2] | IC50 Ug/ml HCMV [1] | % inhibition 10 ug/ml VZV ([2]; 10 ug/ml) | IC50 Ug/ml VZV [2]
1 | 25 µg/mL (≈ 62 µM) | – | CC(=O)Nc1ccc(NC(=S)Nc2ccc(N3CCCCC3)c(Cl)c2)cc1 [Example 239, N-{4-[3-(3-Chloro-4-piperidin-1-yl-phenyl)-thioureido]-phenyl}-acetamide] | > 10 µg/mL | > 10 µg/mL | 33% | – | – | –
2 | > 50 µg/mL | – | CC(=O)Nc1ccc(NC(=S)Nc2ccc(N(C)C)c(Cl)c2)cc1 [Example 240, N-{4-[3-(3-Chloro-4-dimethylamino-phenyl)-thioureido]-phenyl}-acetamide] | 1.5 µg/mL (≈ 4.13 µM) | > 10 µg/mL | 5% | – | – | –
3 | 10 µg/mL (≈ 23.5 µM) | – | CC(=O)Nc1ccc(NC(=S)Nc2ccc(NCc3ccccc3)c(Cl)c2)cc1 [Example 241, N-{4-[3-(4-Benzylamino-3-chloro-phenyl)-thioureido]-phenyl}-acetamide] | 2 µg/mL (≈ 4.71 µM) | > 10 µg/mL | 24% | – | – | –
4 | 50 µg/mL (≈ 129 µM) | – | CC(=O)Nc1ccc(NC(=S)Nc2ccc(N3CCCC3)c(Cl)c2)cc1 [Example 242, N-{4-[3-(3-Chloro-4-pyrrolidin-1-yl-phenyl)-thioureido]-phenyl}-acetamide] | > 10 µg/mL | > 10 µg/mL | 20% | – | – | –
5 | > 50 µg/mL | – | CC(=O)Nc1ccc(NC(=S)Nc2ccc(N3CCN(C)CC3)c(Cl)c2)cc1 [Example 243, N-(4-{3-[3-Chloro-4-(4-methyl-piperazin-1-yl)-phenyl]-thioureido}-phenyl)-acetamide] | 40 µg/mL (≈ 95.7 µM) | > 10 µg/mL | 4% | – | – | –
6 | > 10 µg/mL | – | COc1ccc(NC(=S)Nc2ccc(NC(C)=O)cc2)c(NCc2ccccc2)c1 [Example 245, N-{4-[3-(2-Benzylamino-4-methoxy-phenyl)-thioureido]-phenyl}-acetamide] | > 10 µg/mL | 3.5 µg/mL (≈ 8.32 µM) | 73% | – | – | –
7 | > 50 µg/mL | – | CC(=O)Nc1ccc(NC(=S)Nc2ccc(OCC#N)c(Cl)c2)cc1 [Example 251, N-(4-{3-[3-Chloro-4-(2-nitrilo-ethoxy)-phenyl]-thioureido}-phenyl)-acetamide] | 7 µg/mL (≈ 18.7 µM) | > 10 µg/mL | 22% | – | – | –
8 | > 50 µg/mL | – | COc1cc(OC)c(NC(=S)Nc2ccc(NC(C)=O)c(C#N)c2)cc1Cl [Example 259, N-{4-[3-(5-Chloro-2,4-dimethoxy-phenyl)-thioureido]-2-cyano-phenyl}-acetamide] | > 50 µg/mL | > 10 µg/mL | 28% | – | – | –
9 | > 10 µg/mL | – | COc1cc(OC)c(NC(=S)Nc2cc(OC)c(NC(C)=O)cc2OC)cc1Cl [Example 261, N-{4-[3-(5-Chloro-2,4-dimethoxy-phenyl)-thioureido]-2,5-dimethoxy-phenyl}-acetamide] | > 10 µg/mL | > 10 µg/mL | 1% | – | – | –
10 | > 50 µg/mL | – | CC(=O)Nc1ccc(NC(=S)Nc2ccc(Oc3ccc(Cl)cc3S(=O)(=O)O)c(Cl)c2)cc1 [Example 262, 2-{4-[3-(4-Acetylamino-phenyl)-thioureido]-2-chloro-phenoxy}-5-chloro-benzenesulfonic acid] | > 50 µg/mL | > 10 µg/mL | 15% | – | – | –
11 | > 50 µg/mL | – | CC(=O)Nc1ccc(NC(=S)Nc2ccc(Oc3cc(Cl)c(Cl)cc3S(=O)(=O)O)c(Cl)c2)cc1 [Example 263, 2-{4-[3-(4-Acetylamino-phenyl)-thioureido]-2-chloro-phenoxy}-4,5-dichloro-benzensulfonic acid] | > 50 µg/mL | > 10 µg/mL | 20% | – | – | –
12 | > 50 µg/mL | – | CC(=O)Nc1ccc(NC(=S)Nc2ccc(OCCO)c(Cl)c2)cc1 [Example 265, N-(4-{3-[3-Chloro-4-(2-hydroxy-ethoxy)-phenyl]-thioureido}-phenyl)-acetamide] | > 50 µg/mL | > 10 µg/mL | 20% | – | – | –
13 | > 10 µg/mL | – | CCN(c1ccc(NC(=S)Nc2ccc(NC(C)=O)cc2)cc1Cl)C1CCCCC1 [Example 267, N-(4-{3-[3-Chloro-4-(cyclohexyl-ethyl-amino)-phenyl]-thioureido}-phenyl)-acetamide] | > 10 µg/mL | > 10 µg/mL | 25% | – | – | –
14 | > 10 µg/mL | – | CCOc1ccc(NC(=S)Nc2ccc(NC(C)=O)cc2)cc1Cl [Example 268, N-{4-[3-(3-Chloro-4-ethoxy-phenyl)-thioureido]-phenyl}-acetamide] | 10 µg/mL (≈ 27.5 µM) | > 10 µg/mL | 14% | – | – | –
15 | > 10 µg/mL | – | CC(=O)Nc1ccc(NC(=S)Nc2ccc(OCc3ccccc3)c(Cl)c2)cc1 [Example 269, N-{4-[3-(4-Benzyloxy-3-chloro-phenyl)-thioureido]-phenyl}-acetamide] | 5 µg/mL (≈ 11.7 µM) | > 10 µg/mL | 38% | – | – | –
16 | 7 µg/mL (≈ 15.4 µM) | – | COc1cc(NCc2ccccc2)c(NC(=S)Nc2ccc(NC(C)=O)cc2)cc1Cl [Example 271, N-{4-[3-(2-Benzylamino-5-chloro-4-methoxy-phenyl)-thioureido]-phenyl}-acetamide] | > 10 µg/mL | 3.5 µg/mL (≈ 7.69 µM) | 105% | – | – | –
17 | > 50 µg/mL | – | CCCN(CCC)c1ccc(NC(=S)Nc2ccc(NC(C)=O)cc2)cc1Cl [Example 272, N-{4-[3-(3-Chloro-4-dipropylamino-phenyl)-thioureido]-phenyl}-acetamide] | > 10 µg/mL | > 10 µg/mL | 50% | – | – | –
18 | – | >50 Ug/ml | C=CCN(c1ccc(NC(=S)Nc2ccc(NC(C)=O)cc2)cc1Cl)C1CCCCC1 [Example 273, N-(4-{3-[4-(Allyl-cyclohexyl-amino)-3-chloro-phenyl]-thioureido}-phenyl)-cetamide] | – | – | – | >10 Ug/ml | 46% | >10 Ug/ml
19 | 5 µg/mL (≈ 12.2 µM) | – | COc1cc(OC)c(NC(=S)Nc2ccc(NC(C)=O)c(OC)c2)cc1Cl [Example 274, N-{4-[3-(5-Chloro-2,4-dimethoxy-phenyl)-thioureido]-2-methoxy-phenyl}-acetamide] | > 50 µg/mL | > 10 µg/mL | 15% | – | – | –
20 | 10 µg/mL (≈ 24.1 µM) | – | COc1cc(OC)c(NC(=S)Nc2ccc(NC(C)=O)c(Cl)c2)cc1Cl [Example 275, N-{2-Chloro-4-[3-(5-chloro-2,4-dimethoxy-phenyl)-thioureido]-phenyl}-acetamide] | > 10 µg/mL | > 10 µg/mL | 32% | – | – | –
21 | > 10 µg/mL | – | CC(=O)Nc1ccc(NC(=S)Nc2ccc(N3CCCC4CCCCC43)c(Cl)c2)cc1 (centres unmarked) [Example 282, N-(4-{3-[3-Chloro-4-(octahydro-quinolin-1-yl)-phenyl]-thioureido}-phenyl)-acetamide] | > 10 µg/mL | > 10 µg/mL | 50% | – | – | –

Row | Structure (SMILES) | IC50 [3] | IC50 Ug/ml HSV [3] | IC50 [1] | IC50 [2] | inhibition at 10 µg/mL [2] | IC50 Ug/ml HCMV [1] | % inhibition 10 ug/ml VZV ([2]; 10 ug/ml) | IC50 Ug/ml VZV [2]
22 | CCC(C)Oc1ccc(NC(=S)Nc2ccc(NC(C)=O)cc2)cc1Cl (centres unmarked) [Example 252, N-{4-[3-(4-sec-Butoxy-3-chloro-phenyl)-thioureido]-phenyl}-acetamide] | 10 µg/mL (≈ 25.5 µM) | – | 10 µg/mL (≈ 25.5 µM) | > 10 µg/mL | 0% | – | – | –
23 | CCCCOc1ccc(NC(=S)Nc2ccc(NC(C)=O)cc2)cc1Cl [Example 266, N-{4-[3-(4-Butoxy-3-chloro-phenyl)-thioureido]-phenyl}-acetamide] | 12 µg/mL (≈ 30.6 µM) | – | > 10 µg/mL | > 10 µg/mL | 10% | – | – | –

From patent publication US6335350B1, “Acetamide and substituted acetamide-containing thiourea inhibitors of herpes viruses” (American Home Products Corporation, priority 1998, dated 2002)
